The structures appear in SMILES notation. pEC50: −log10 of the molar value. Like-named read-outs stand apart in the source and are kept apart here.

The target of the assay is T1, human M2 receptor (Homo sapiens, UniProt P08172).
T1 sequence (P08172 1-466): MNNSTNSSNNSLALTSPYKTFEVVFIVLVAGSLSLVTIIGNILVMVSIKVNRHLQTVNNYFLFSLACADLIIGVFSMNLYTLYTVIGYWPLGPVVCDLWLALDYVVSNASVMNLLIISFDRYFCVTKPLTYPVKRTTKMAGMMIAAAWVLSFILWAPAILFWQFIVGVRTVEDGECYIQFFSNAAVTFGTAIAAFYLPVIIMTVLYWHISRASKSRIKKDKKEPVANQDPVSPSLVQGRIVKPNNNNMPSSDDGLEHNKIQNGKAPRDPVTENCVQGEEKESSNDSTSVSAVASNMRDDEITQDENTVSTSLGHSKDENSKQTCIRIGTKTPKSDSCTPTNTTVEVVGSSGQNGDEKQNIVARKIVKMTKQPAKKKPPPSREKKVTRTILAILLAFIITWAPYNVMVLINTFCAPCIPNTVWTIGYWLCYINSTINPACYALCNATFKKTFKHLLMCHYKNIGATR
The settings on record: for pEC50: Receptor activity EC50, allosteric potency at EC20 acetylcholine, in some cases mean of two or more determinations.

The mark [1] stands for this setting: read-out: Efficiency, boosting of the acetylcholine effect at EC20 acetylcholine concentration, M2-GIRK1/4 reporter cells.

In the case of `CC(NC(=O)c1cn(-c2c(F)cc(F)cc2F)c2nc(N3C[C@@H](O)CC3=O)ccc2c1=O)C(F)(F)C(F)(F)F` (mixture of isomers) [Example 529, 7-[(4S)-4-Hydroxy-2-oxopyrrolidin-1-yl]-4-oxo-N-[3,3,4,4,4-pentafluorobutan-2-yl]-1-(2,4,6-trifluorophenyl)-1,4-dihydro-1,8-naphthyridine-3-carboxamide], the pEC50 (M2-GIRK1/4 reporter cells) is 8.22. Further, the Emax under setting [1] is 96%.

As to `O=C(NC(c1ccccc1Cl)C(F)(F)F)c1cn(-c2c(F)cc(F)cc2F)c2nc(N3C[C@@H](O)CC3=O)ccc2c1=O` (mixture of isomers) [Example 532, N-[1-(2-Chlorophenyl)-2,2,2-trifluoroethyl]-7-[(4S)-4-hydroxy-2-oxopyrrolidin-1-yl]-4-oxo-1-(2,4,6-trifluorophenyl)-1,4-dihydro-1,8-naphthyridine-3-carboxamide], the pEC50 (M2-GIRK1/4 reporter cells) is 7.74. For the same compound, the Emax under setting [1] is 92%. With `CC(C)C(NC(=O)c1cn(-c2c(F)cc(F)cc2F)c2nc(N3CCNC3=O)ccc2c1=O)C(F)(F)F` (racemic) [Example 536, 4-Oxo-7-(2-oxoimidazolidin-1-yl)-N-[1,1,1-trifluoro-3-methylbutan-2-yl]-1-(2,4,6-trifluorophenyl)-1,4-dihydro-1,8-naphthyridine-3-carboxamide], the pEC50 (M2-GIRK1/4 reporter cells) is 7.80. Besides, the Emax under setting [1] was 99.5%.

Regarding `CC(NC(=O)c1cn(-c2c(F)cc(F)cc2F)c2nc(N3CCNC3=O)ccc2c1=O)C(F)(F)C(F)(F)F` (racemic) [Example 540, 4-Oxo-7-(2-oxoimidazolidin-1-yl)-N-[3,3,4,4,4-pentafluorobutan-2-yl]-1-(2,4,6-trifluorophenyl)-1,4-dihydro-1,8-naphthyridine-3-carboxamide], the pEC50 (M2-GIRK1/4 reporter cells) was 8.05. Further, under setting [1], the Emax is 90%.

In the case of `CC(NC(=O)c1cn(-c2c(F)cc(F)cc2F)c2nc(N3C[C@@H](O)[C@H](O)C3)ccc2c1=O)C(F)(F)C(F)(F)F` (mixture of isomers) [Example 549, 7-[(3R,4R)-3,4-Dihydroxypyrrolidin-1-yl]-4-oxo-N-[3,3,4,4,4-pentafluorobutan-2-yl]-1-(2,4,6-trifluorophenyl)-1,4-dihydro-1,8-naphthyridine-3-carboxamide], the Emax (read-out: Efficiency) came to 100%.

In the case of `CC(C)C(NC(=O)c1cn(-c2c(F)cc(F)cc2F)c2nc(N3C[C@@H](O)[C@H](O)C3)ccc2c1=O)C(F)(F)F` (mixture of isomers) [Example 552, 7-[(3R,4R)-3,4-Dihydroxypyrrolidin-1-yl]-4-oxo-N-[1,1,1-trifluoro-3-methylbutan-2-yl]-1-(2,4,6-trifluorophenyl)-1,4-dihydro-1,8-naphthyridine-3-carboxamide], the pEC50 (M2-GIRK1/4 reporter cells) is 7.85. The Emax under setting [1] turned out to be 96%. In the same order, the values of `CCC(NC(=O)c1cn(-c2ccc(F)cc2F)c2nc(N3C[C@@H](O)CC3=O)ccc2c1=O)C(F)(F)C(F)(F)F` (mixture of isomers) [Example 556, 1-(2,4-Difluorophenyl)-7-[(4S)-4-hydroxy-2-oxopyrrolidin-1-yl]-4-oxo-N-[1,1,1,2,2-pentafluoropentan-3-yl]-1,4-dihydro-1,8-naphthyridine-3-carboxamide] are 8.00 and 100%. Compound `O=C(NC(c1ccccc1Cl)C(F)(F)F)c1cn(-c2c(F)cc(F)cc2F)c2nc(N3C[C@@H](O)[C@H](O)C3)ccc2c1=O` (mixture of isomers) [Example 560, N-[1-(2-Chlorophenyl)-2,2,2-trifluoroethyl]-7-[(3R,4R)-3,4-dihydroxypyrrolidin-1-yl]-4-oxo-1-(2,4,6-trifluorophenyl)-1,4-dihydro-1,8-naphthyridine-3-carboxamide] gave a pEC50 (M2-GIRK1/4 reporter cells) of 7.77. Besides, the Emax under setting [1] came out at 100%.

Regarding `O=C(NC(c1ccccc1Cl)C(F)(F)F)c1cn(-c2c(F)cc(F)cc2F)c2nc(N3CCNC3=O)ccc2c1=O` (racemic) [Example 563, N-[1-(2-Chlorophenyl)-2,2,2-trifluoroethyl]-4-oxo-7-(2-oxoimidazolidin-1-yl)-1-(2,4,6-trifluorophenyl)-1,4-dihydro-1,8-naphthyridine-3-carboxamide], the pEC50 (M2-GIRK1/4 reporter cells) was 7.70. Besides, the Emax under setting [1] came to 100%.

For the origin of these results see patent US20190367516A1 (Bayer Pharma Aktiengesellschaft, priority 2015, published 2019).
